Publication PMC7297817, “Pharmacological Characterization of a Betaine/GABA Transporter 1 (BGT1) Inhibitor Displaying an Unusual Biphasic Inhibition Profile and Anti-seizure Effects” (Neurochemical Research, 2020)
Like-named read-outs stand apart in the source and are kept apart here.

Columns and labels:
[1] = target: T1, hGAT3 (Homo sapiens, UniProt P48066); test: [3H]GABA uptake at hGAT3 stably expressed in CHO cells; assay type: cell-based; conditions: N=3
T1 construct: expressed in transfected cells
T1 sequence (P48066 1-632): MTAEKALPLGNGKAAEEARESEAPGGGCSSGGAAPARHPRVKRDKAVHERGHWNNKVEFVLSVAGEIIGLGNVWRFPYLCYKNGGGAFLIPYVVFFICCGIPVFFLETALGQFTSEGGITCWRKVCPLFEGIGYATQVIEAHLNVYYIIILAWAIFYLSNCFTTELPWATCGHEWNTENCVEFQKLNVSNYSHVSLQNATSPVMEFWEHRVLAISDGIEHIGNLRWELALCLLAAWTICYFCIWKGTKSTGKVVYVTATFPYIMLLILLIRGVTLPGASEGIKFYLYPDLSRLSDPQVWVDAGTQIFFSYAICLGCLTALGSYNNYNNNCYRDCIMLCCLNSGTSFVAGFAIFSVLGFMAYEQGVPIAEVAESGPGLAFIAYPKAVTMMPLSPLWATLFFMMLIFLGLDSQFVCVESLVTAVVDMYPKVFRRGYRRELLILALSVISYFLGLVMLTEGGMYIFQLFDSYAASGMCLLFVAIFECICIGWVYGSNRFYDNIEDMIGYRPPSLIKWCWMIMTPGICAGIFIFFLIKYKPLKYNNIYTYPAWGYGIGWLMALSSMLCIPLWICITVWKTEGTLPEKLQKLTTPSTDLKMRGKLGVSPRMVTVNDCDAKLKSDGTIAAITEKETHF
Description: (§1) The HEK-293 and Flp-In CHO cell lines stably expressing mouse (m) and human (h) GATs, respectively, have been described previously and were cultured accordingly. The tsA201 cell line was used for transient expression while the MDCK II cell line express BGT1 endogenously. Both cell lines were cultured as described. tsA201 cells were transfected with DNA constructs (8 μg per 10 cm dish if not otherwise mentioned) using 40 μL PolyFect transfection reagent according to the manufacturer’s protocol (Qiagen, Venlo, Netherlands). The DNA constructs encoding hBGT1, hGAT1-3 [36], the mutated constructs hBGT1 Q299 and hGAT3 L314Q described previously, and hBGT Y453A were synthesized and sequence validated by Genscript (NJ, USA).
(§2) The [^3H]GABA competition uptake assay was performed as previously described. A minor change, however, was introduced for uptake in MDCK II cells, in which 100 nM [^3H]GABA was used for a 15 min incubation period at 37 °C instead of 30 nM [^3H]GABA and 3 min incubation. Studies related to the inhibition curves with GABA and BPDBA at hBGT1 were obtained both with and without the presence of 10 μM ATP during the [^3H]GABA uptake assay.
The [^3H]GABA uptake data was normalized to the percentage of total uptake in the individual experiments in the presence of the lowest compound concentration or no compound present. Data presented is the pooled data of at least three independent experiments with three technical replicates. Concentration–response curves (CRCs) were fitted with GraphPad Prism (version 8.2.1, Yosemite, GraphPad Software, San Diego, CA, USA) by non-linear regression to the sigmoidal concentration response model: Y=Bottom+(Top-Bottom)/1+10^LogIC50-X∗nH where Top is the Top plateau, Bottom is the Bottom plateau, X is the logarithm of the concentration of the compound, LogIC50 is the concentration giving a response halfway between Top and Bottom,and nH is the Hill slope.
The best fit for CRCs obtained with the [^3H]GABA uptake assay was identified by the extra-sum-of-squares F test (for convenience referred to as F test).

[2] = target: T2, hBGT1 Y453A (Homo sapiens, UniProt P48065, Y453A); test: [3H]GABA uptake at hBGT1 Y453A mutant in tsA201 cells; assay type: cell-based; conditions: data not shown
T2 construct: host or cells: tsA201 (transient)
T2 sequence (P48065 whole entry Y453A): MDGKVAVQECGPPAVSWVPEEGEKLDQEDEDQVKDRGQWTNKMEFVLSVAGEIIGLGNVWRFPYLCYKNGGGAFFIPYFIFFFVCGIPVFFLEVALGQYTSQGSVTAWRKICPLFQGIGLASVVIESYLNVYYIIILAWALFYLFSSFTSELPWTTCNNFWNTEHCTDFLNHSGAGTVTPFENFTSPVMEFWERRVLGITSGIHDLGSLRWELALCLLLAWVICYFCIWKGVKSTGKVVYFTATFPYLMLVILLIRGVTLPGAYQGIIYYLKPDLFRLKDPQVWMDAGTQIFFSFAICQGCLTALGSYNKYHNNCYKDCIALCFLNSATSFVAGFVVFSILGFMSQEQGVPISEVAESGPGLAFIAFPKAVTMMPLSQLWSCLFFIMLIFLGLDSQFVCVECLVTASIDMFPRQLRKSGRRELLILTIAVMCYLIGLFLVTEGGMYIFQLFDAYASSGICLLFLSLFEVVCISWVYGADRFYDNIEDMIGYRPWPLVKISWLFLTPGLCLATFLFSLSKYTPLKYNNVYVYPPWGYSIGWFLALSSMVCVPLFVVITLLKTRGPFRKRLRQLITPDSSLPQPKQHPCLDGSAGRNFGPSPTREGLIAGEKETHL
Description: as §1, §2
(§3) The [^3H]GABA uptake data was normalized to the percentage of total uptake in the individual experiments in the presence of the lowest compound concentration or no compound present. […]

[3] = test system: CF-1 mice; test: s.c.PTZ seizure threshold test; assay type: in vivo, mouse; conditions: 150 mg/kg i.p.
Description: Male audiogenic-susceptible (AGS) Frings mice were obtained from an in-house breeding facility at the University of Utah (Salt Lake City, UT, USA). Male CF-1 mice for the maximal electroshock (MES) test and the subcutaneous pentylenetetrazol (s.c.PTZ) seizure threshold test were purchased from Charles River (Kingston, WA, USA). All mice were housed in a temperature, humidity, and light (on at 6:00 AM) controlled facility at the University of Utah with access to ad libitum food and water except during testing. All procedures were carried out at the University of Utah in concordance with the National Institutes of Health Guidelines for the Care and Use of Laboratory Animals and under approval from the University of Utah’s Institutional Animal Care and Use Committee. The mice were euthanized in accordance with Public Health Service policies on the humane care of laboratory animals. SBV2-114 was tested for its ability to prevent a minimal clonic seizure in the s.c.PTZ seizure test, which is a test of generalized myoclonic seizures. […] At the TPE, mice were challenged with a s.c. dose of PTZ (85 mg/kg) and observed for 30 min for the presence or absence of a minimal clonic seizure characterized by minimal forelimb clonus and/or vibrissae twitching. Mice not displaying this phenotypic behaviour were considered protected.

[4] = target: T1, hGAT3; test: [3H]GABA uptake at hGAT3 transiently expressed in tsA201 cells; assay type: cell-based; conditions: 30 nM [3H]GABA, 3 min, F test P < 0.05
Description: as §1, §2, §3

[5] = target: T3, 5-HT2B (Homo sapiens, UniProt P41595); test: NIMH PDSP radioligand binding, 5-HT2B; conditions: radioligand [3H]LSD
T3 construct: NIMH PDSP (screening service)
T3 sequence (P41595 whole entry, species assumed): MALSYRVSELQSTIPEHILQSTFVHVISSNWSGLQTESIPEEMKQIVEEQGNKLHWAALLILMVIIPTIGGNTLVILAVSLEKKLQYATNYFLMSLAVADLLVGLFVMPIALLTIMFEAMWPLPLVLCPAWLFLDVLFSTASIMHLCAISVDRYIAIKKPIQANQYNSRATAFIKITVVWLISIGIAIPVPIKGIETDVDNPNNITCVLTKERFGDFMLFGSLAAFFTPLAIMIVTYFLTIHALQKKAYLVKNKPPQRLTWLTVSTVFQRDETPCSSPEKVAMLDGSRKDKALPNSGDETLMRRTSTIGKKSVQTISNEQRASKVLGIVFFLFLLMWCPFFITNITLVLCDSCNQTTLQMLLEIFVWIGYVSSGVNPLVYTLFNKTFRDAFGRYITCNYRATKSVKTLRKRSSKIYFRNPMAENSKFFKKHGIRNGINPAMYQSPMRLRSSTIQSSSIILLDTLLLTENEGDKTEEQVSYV

[6] = target: T4, 5-HT2C (Homo sapiens, UniProt P28335); test: NIMH PDSP radioligand binding, 5-HT2C; conditions: radioligand [3H]mesulergine
T4 construct: NIMH PDSP (screening service)
T4 sequence (P28335 33-458, species assumed): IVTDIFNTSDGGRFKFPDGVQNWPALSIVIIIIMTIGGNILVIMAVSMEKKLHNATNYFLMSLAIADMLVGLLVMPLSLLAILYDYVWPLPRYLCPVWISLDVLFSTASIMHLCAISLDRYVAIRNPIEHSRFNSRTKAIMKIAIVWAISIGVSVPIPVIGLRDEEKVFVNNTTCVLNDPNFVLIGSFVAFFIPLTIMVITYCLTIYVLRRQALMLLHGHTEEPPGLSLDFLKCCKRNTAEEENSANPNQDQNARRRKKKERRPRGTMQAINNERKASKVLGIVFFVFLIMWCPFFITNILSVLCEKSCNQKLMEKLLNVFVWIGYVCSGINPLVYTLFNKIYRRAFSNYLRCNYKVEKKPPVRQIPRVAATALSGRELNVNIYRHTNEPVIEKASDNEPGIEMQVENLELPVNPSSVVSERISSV

[7] = target: T5, D3 (Homo sapiens, UniProt P35462); test: NIMH PDSP radioligand binding, D3; conditions: radioligand [3H]N-methylspiperone, n=4
T5 construct: purchased NIMH Psychoactive Drug Screening Program (PDSP)
T5 sequence (P35462 whole entry): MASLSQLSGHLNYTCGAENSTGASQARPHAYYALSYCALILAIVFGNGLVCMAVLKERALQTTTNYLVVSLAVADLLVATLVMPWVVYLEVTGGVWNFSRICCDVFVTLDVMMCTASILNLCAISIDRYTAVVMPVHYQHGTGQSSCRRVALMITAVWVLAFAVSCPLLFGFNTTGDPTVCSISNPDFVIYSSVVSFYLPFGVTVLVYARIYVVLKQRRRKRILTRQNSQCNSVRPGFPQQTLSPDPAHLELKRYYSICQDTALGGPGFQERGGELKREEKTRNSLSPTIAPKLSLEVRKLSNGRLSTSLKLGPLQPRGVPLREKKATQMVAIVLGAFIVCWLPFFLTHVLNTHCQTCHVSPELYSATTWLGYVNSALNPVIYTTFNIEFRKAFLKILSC

[8] = target: T6, Alpha1B (Homo sapiens, UniProt P35368); test: NIMH PDSP radioligand binding, Alpha1B; conditions: radioligand [3H]prazosine, n=4
T6 construct: purchased NIMH Psychoactive Drug Screening Program (PDSP)
T6 sequence (P35368 whole entry): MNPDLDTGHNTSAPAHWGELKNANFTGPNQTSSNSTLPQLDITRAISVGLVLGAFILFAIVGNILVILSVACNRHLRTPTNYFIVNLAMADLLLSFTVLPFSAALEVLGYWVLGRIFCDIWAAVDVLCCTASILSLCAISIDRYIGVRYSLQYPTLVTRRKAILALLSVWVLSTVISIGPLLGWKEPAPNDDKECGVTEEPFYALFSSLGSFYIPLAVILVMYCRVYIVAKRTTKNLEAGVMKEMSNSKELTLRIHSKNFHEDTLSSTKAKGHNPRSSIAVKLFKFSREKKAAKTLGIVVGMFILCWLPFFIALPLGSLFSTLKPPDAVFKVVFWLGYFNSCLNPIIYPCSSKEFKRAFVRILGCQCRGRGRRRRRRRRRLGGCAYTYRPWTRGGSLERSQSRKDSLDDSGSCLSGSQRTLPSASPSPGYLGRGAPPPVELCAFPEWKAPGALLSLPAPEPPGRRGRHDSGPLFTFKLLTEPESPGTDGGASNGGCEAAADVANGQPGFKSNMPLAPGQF

[9] = target: T7, NET (Homo sapiens, UniProt P23975); test: NIMH PDSP radioligand binding, NET; conditions: radioligand [3H]nisoxetine, n=4
T7 construct: purchased NIMH Psychoactive Drug Screening Program (PDSP)
T7 sequence (P23975 whole entry): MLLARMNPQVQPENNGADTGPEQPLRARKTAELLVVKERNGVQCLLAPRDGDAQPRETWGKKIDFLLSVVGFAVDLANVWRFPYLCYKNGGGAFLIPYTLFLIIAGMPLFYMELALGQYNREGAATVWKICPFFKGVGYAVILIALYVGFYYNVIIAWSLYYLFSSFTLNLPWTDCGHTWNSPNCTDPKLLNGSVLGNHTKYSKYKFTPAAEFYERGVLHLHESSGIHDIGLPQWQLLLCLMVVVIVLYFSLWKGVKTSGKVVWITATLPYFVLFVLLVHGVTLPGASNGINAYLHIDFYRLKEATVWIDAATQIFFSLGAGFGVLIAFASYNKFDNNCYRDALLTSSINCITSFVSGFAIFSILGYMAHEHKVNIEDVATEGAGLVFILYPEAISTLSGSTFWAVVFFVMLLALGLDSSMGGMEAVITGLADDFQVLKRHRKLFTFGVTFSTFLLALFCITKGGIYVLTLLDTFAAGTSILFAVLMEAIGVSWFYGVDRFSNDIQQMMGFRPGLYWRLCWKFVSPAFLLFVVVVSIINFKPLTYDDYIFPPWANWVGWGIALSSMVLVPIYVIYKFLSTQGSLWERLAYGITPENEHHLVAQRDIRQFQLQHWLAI

SMILES: Cc1ccsc1C(=CCCN(C)[C@H]1CCCC[C@H]1C(=O)O)c1sccc1C [SBV2-114, (1R,2S)-2-((4,4-bis(3-methylthiophen-2-yl)but-3-en-yl)(methyl)amino)cyclohexanecarboxylic acid]
- Frac ([1]; biphasic fit, CHO): 0.09
- IC50 ([1]; biphasic fit, CHO, read-out: IC50, high affinity component): 2090 nM
- Fit ([1]; preferred model): Biphasic
- IC50 ([1]; read-out: IC50, low affinity component, biphasic fit, CHO): 603000 nM
- activity at hBGT1 Y453A [2]: did not show the expected decrease in activity
- effect on s.c.PTZ-induced seizures [3]: did not block s.c.PTZ-induced seizures
- #Protected/#Tested ([3]; 30 min, PTZ 85 mg/kg s.c.): 0/8
- preferred fit [4]: biphasic fit
- inhibition at 10 µM ([5]; 10 μM, n=4): 96.8%
- Ki ([5]; full curve): 420 nM
- inhibition at 10 µM ([6]; 10 μM, n=4): 77.5%
- Ki ([6]; full curve): 670 nM
- inhibition at 10 µM [7]: 27.8%
- inhibition at 10 µM [8]: 1.9%
- inhibition at 10 µM [9]: 0.1%
